Earlier results as cited in US20250381160A1, “Method and Apparatus for Providing Transdermal Delivery of a Carbidopa/Levodopa-Based Lotion for the Treatment of Parkinson's Disease” (Through The Skin LLC, priority 2024, published 2025).

How the values were obtained:
[1] = system: Parkinson's Disease; conditions: carbidopa given with levodopa
[2] = with HA of 150,000-750,000 Daltons, 1-3% of the solution, versus formulations without hyaluronic acid
[3] = not given; remark: listed apart in the source

solubility in water	increase of the amount that penetrated the skin [2]	half-life of levodopa ([3]; carbidopa and levodopa administered together)	plasma half-life of levodopa ([3]; without carbidopa)	SMILES	reduction of the amount of levodopa required to produce a given response [1]
slightly soluble in water				CC(Cc1ccc(O)c(O)c1)(NN)C(=O)O (single isomer, unassigned; (-)) [Carbidopa, (-)-L-α-hydrazino-α-methyl-β-(3,4-dihydroxybenzene) propanoic acid monohydrate]	about 75%
	3 times			O=C(O)Cc1ccccc1Nc1c(Cl)cccc1Cl [diclofenac sodium]	
slightly soluble in water		about 1.5 hours	about 50 minutes	NC(Cc1ccc(O)c(O)c1)C(=O)O (single isomer, unassigned; (-)) [Levodopa, (-)-L-α-amino-β-(3,4-dihydroxybenzene) propanoic acid]	
